The test system of data set [1] is MRP2. The arrangement: method as in Koenig et al., 2010; Swedrowska et al., 2017. The settings on record: 50 µM; Caco-2 cells; ref Koenig et al., 2010; Swedrowska et al., 2017; cited from earlier work.
A short description of data set [2]: Bidirectional transport assay, P-gp single- and double-KO cells taken together. It is filed as in vitro ADME. The settings on record: human, pH 7.4, 5 μM substrate. As for the experimental part: (§1) The medium was replaced every second day.
(§2) All these studies were conducted by following similar procedures. […] Then, HBSS was aspirated from both sides.
(§3) The flow rate was 0.3 mL/min.

Data set [3] has as its target T1, P-gp, BCRP, and MRP2 efflux transporters (Homo sapiens, UniProt Q92887).
T1 construct: endogenous in cells; host or cells: Caco-2 WT and CRISPR/Cas9 transporter-knockout Caco-2 clones
Description: Transporter substrate identification with the panel of WT and KO Caco-2 cells. Type of data set: in vitro ADME. The settings on record: 5 μM. As for the experimental part: as §1, §2, §3

Data set [4] concerns P-gp, BCRP, and MRP2 efflux transporters. The data set is described as above. Type of data set: in vitro ADME, human. The note with it: 5 μM; ER ≥ 2 suggests active transport. As for the experimental part:
as §1, §2, §3

A short description of data set [5]: Bidirectional transport assay across Caco-2 WT monolayers. The settings on record: human; for Papp A→B at 1 h, 5 μM / Papp B→A at 1 h, 5 μM: Caco-2, pH 7.4.
Description: (§4) For MRP2, the nonfluorescent compound CDCFDA was used as the probe substrate. […] After treatment, samples were transferred to black-walled 96-well assay plates. A standard curve of 2-fold serial dilution from 10 µM CDCF was generated. The CDCF concentration was measured based on the fluorescence in a microplate fluorescence reader (Tecan, Switzerland) set at 485 nm and 530 nm for the excitation and emission wavelengths, respectively.
Data set [6] is described as follows: Bidirectional transport assay across P-gp KO Caco-2 monolayers. The settings on record: human, pH 7.4. (Caco-2 monolayers are a common model of the intestinal barrier.)
A short description of data set [7]: Bidirectional transport assay across BCRP KO Caco-2 monolayers. The settings on record: human; for Papp A→B at 1 h, 5 μM / Papp B→A at 1 h, 5 μM: pH 7.4.
Description: as §4
Another data set deals with Caco^BCRP−/− cells. Described as above. The settings on record: Caco^BCRP−/−; 5 μM substrate; n = 3.
Data set [8] in a line: Bidirectional transport assay across MRP2 KO Caco-2 monolayers. The note with it: human; for Papp A→B at 1 h, 5 μM: pH 7.4, Papp A-to-B, Caco^MRP2−/−, 5 μM substrate, 37°C, HBSS pH 7.4, n = 3.
Description: as §4
The nature of data set [9]: Bidirectional transport assay across P-gp/BCRP double KO Caco-2 monolayers. The settings on record: human, pH 7.4.
Description: as §4
Data set [10] is described as follows: Bidirectional transport assay across P-gp/MRP2 double KO Caco-2 monolayers. The settings on record: human, pH 7.4.
Description: as §4
Data set [11] is described as follows: Bidirectional transport assay across MRP2/BCRP double KO Caco-2 monolayers. The settings on record: human; for Papp A→B at 1 h, 5 μM: pH 7.4, Papp A-to-B, Caco^MRP2−/−BCRP−/−, 5 μM substrate, 37°C, HBSS pH 7.4, n = 3.
Description: as §4
Another data set deals with MDCKⅡ-MDR1. The arrangement: method as in Agarwal et al., 2007. The settings on record: MDCKⅡ-MDR1 treated with P-gp inhibitors; ref Agarwal et al., 2007; cited from earlier work.
Data set [12] deals with MRP2. The arrangement: method as in Bierman et al., 2010; Holmstock et al., 2018. The note with it: 5 μM and 10 µM; ref Bierman et al., 2010; Holmstock et al., 2018; cited from earlier work.

Molecules are shown by their SMILES.

T1 sequence (Q92887 whole entry): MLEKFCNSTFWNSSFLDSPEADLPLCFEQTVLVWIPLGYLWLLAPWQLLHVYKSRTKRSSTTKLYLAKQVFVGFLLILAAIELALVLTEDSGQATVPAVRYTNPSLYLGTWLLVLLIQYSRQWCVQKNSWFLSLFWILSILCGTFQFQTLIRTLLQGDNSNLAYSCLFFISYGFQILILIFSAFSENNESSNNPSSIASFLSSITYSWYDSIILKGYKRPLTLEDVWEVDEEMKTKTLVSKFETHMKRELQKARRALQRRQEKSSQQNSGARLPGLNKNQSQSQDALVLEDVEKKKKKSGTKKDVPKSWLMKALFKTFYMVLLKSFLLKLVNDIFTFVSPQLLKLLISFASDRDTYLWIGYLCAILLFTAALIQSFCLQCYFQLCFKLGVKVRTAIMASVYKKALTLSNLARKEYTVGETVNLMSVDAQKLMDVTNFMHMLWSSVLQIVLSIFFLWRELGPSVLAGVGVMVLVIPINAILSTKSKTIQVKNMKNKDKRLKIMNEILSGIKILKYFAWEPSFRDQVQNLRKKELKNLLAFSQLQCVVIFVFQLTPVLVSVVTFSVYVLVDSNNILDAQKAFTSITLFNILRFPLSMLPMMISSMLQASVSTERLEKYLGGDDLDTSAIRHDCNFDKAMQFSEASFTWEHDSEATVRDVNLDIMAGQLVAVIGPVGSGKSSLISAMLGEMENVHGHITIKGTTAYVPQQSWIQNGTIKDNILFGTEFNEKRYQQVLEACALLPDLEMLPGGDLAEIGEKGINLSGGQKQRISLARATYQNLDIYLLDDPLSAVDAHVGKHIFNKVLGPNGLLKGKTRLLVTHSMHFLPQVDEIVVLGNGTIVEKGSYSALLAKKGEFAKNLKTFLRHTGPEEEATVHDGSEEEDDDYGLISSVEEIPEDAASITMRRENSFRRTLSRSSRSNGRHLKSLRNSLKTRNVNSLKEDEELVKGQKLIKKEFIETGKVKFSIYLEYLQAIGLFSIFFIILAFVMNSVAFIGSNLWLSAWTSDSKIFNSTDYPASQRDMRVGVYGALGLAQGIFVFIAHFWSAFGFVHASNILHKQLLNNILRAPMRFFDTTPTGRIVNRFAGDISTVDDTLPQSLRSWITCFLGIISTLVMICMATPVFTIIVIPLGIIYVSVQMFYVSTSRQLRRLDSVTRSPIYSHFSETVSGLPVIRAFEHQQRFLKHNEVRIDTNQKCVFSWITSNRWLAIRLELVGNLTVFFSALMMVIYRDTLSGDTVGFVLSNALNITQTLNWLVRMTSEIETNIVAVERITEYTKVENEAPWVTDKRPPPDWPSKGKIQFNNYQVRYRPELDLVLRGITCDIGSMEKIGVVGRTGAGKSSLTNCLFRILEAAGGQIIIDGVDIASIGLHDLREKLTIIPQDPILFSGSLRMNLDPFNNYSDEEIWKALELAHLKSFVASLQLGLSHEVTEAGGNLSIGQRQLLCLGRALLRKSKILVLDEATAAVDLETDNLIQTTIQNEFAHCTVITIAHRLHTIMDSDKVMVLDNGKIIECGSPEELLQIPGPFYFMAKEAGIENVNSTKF
Description for Caco^BCRP−/− cells: as §4

Consider `O=C1OC(c2ccc(O)c(S(=O)(=O)O)c2)(c2ccc(O)c(S(=O)(=O)O)c2)c2c(Br)c(Br)c(Br)c(Br)c21` [bromsulphthalein], for which, in the data set on MRP2 [1], the “Effect on darunavir efflux transport” value is listed as “significant suppression”.
As to `Cc1c(O)cccc1C(=O)N[C@@H](CSc1ccccc1)[C@H](O)CN1C[C@H]2CCCC[C@H]2C[C@H]1C(=O)NC(C)(C)C` [Nelfinavir], the efflux ratio at 1 h, 5 μM in data set [2] is ~1; in data set [5] (Caco-2, pH 7.4, Efflux ratio, WT Caco-2, 5 μM substrate, Papp(B-to-A)/Papp(A-to-B), n = 3), 4.47 ± 1.19; in [6] it was 0.41 ± 0.04; in data set [7] (pH 7.4, Efflux ratio, Caco^BCRP−/−, 5 μM substrate, n = 3), ~2; in data set [8] (pH 7.4), 3.25 ± 0.31; in [9] it was 0.43 ± 0.09. Further, the efflux ratio at 1 h, 5 μM is 1.07 ± 0.42 in data set [10] and 6.41 ± 0.35 in data set [11] (pH 7.4). The “Substrate of MRP2 (conclusion from ERs in KO cells)” value in [3] is on record as “cannot mediate”. Further, in data set [4], the “Efflux transporter substrate identification (conclusion from ERs in WT and KO cells)” value is listed as “P-gp was the main transporter”. Besides, the Papp A→B at 1 h, 5 μM turned out to be 2.78 ± 0.39 ×10⁻⁶ cm/s in [5]; 4.17 ± 0.17 ×10⁻⁶ cm/s in [6]; 2.21 ± 0.41 ×10⁻⁶ cm/s in data set [7]; 4.53 ± 0.26 ×10⁻⁶ cm/s in [8]; 7.54 ± 0.24 ×10⁻⁶ cm/s in data set [9]; 4.23 ± 0.22 ×10⁻⁶ cm/s in [10]. In addition, the apparent permeability from apical to basolateral (Papp A→B) at 1 h, 5 μM in [11] was 2.79 ± 0.28 ×10⁻⁶ cm/s. The basolateral-to-apical permeability (Papp B→A) at 1 h, 5 μM in data set [5] came to 12.2 ± 1.86 ×10⁻⁶ cm/s; in data set [6], 2.18 ± 0.43 ×10⁻⁶ cm/s; in data set [7] it was 4.88 ± 0.17 ×10⁻⁶ cm/s; in [8] (pH 7.4) it was 14.7 ± 0.99 ×10⁻⁶ cm/s; in data set [9] it was 3.22 ± 0.62 ×10⁻⁶ cm/s; in data set [10], 4.51 ± 0.63 ×10⁻⁶ cm/s. Further, in [11] (pH 7.4), the Papp B→A at 1 h, 5 μM stood at 17.9 ± 1.89 ×10⁻⁶ cm/s. Further, the Efflux ratio with Caco^BCRP−/− cells was determined as 2.25 ±0.34.
Regarding `Cc1cccc(C)c1OCC(=O)N[C@@H](Cc1ccccc1)[C@@H](O)C[C@H](Cc1ccccc1)NC(=O)[C@H](C(C)C)N1CCCNC1=O` [Lopinavir, lopinavir], the “Increase of Papp (A-B)” value with MDCKⅡ-MDR1 is recorded as “up to 6 folds”. In the data set with MRP2 [12], the “Transport activity of MRP2” value is “inhibited”. For the same compound, the Papp A→B at 1 h, 5 μM in data set [5] was 3.25 ± 0.59 ×10⁻⁶ cm/s; in data set [6], 10.2 ± 0.27 ×10⁻⁶ cm/s; in data set [7], 5.79 ± 0.64 ×10⁻⁶ cm/s; in [8], ~1 ×10⁻⁶ cm/s; in data set [9] it was 15.2 ± 1.44 ×10⁻⁶ cm/s; in data set [10], 13.8 ± 1.01 ×10⁻⁶ cm/s. In [11], the apparent permeability from apical to basolateral (Papp A→B) at 1 h, 5 μM is ~1 ×10⁻⁶ cm/s. In addition, the Papp B→A at 1 h, 5 μM in [5] turned out to be 24.5 ± 2.04 ×10⁻⁶ cm/s; in [6] it was 6.59 ± 0.62 ×10⁻⁶ cm/s; in data set [7] it was 18.4 ± 0.98 ×10⁻⁶ cm/s; in data set [8] (pH 7.4), 20.1 ± 2.26 ×10⁻⁶ cm/s; in data set [9], 10.3 ± 0.82 ×10⁻⁶ cm/s; in data set [10], 11.5 ± 0.96 ×10⁻⁶ cm/s. The Papp B→A at 1 h, 5 μM in data set [11] (pH 7.4) is 19 ± 3.05 ×10⁻⁶ cm/s.

The efflux ratio is the permeability from basolateral to apical divided by that in the opposite direction, in the common usage. Usually Papp A→B stands for the apparent permeability from the apical to the basolateral side of a cell layer. What is called Papp B→A is how fast a substance crosses the layer from the basolateral side.

Values taken from PMC9649518, “Knockout of ABC transporters by CRISPR/Cas9 contributes to reliable and accurate transporter substrate identification for drug discovery” (Frontiers in Pharmacology, 2022).
